# Experiments:
# [1] = target: Adenosine receptor A2a (Rattus norvegicus) (UniProt P30543); assay: Displacement of [3H]MSX from A2A receptor in rat brain striatum membranes at 1 uM measured after 30 mins by liquid scintillation counting method relative to control; type: cell membranes
# [2] = target: T1, Adenosine receptor A1 (Rattus norvegicus) (UniProt P25099); assay: Displacement of [3H]CCPA from A1 receptor in rat brain cortex membranes at 1.5 uM by liquid scintillation counting method; type: cell membranes
# T1 sequence (whole entry): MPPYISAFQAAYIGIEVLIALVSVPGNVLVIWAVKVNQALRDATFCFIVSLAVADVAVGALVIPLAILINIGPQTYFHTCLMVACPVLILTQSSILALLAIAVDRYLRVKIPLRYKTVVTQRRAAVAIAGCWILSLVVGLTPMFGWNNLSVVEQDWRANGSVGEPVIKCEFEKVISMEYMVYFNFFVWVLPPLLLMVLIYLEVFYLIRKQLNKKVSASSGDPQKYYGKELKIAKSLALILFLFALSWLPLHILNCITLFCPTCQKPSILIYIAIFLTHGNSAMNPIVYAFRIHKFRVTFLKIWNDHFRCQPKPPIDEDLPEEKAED
# [3] = target: T2, Adenosine receptor A2b (Homo sapiens, UniProt P29275); assay: Displacement of [3H]PSB-603 from human A2B receptor expressed in CHO cell membrane; type: cell membranes
# T2 sequence (P29275 whole entry): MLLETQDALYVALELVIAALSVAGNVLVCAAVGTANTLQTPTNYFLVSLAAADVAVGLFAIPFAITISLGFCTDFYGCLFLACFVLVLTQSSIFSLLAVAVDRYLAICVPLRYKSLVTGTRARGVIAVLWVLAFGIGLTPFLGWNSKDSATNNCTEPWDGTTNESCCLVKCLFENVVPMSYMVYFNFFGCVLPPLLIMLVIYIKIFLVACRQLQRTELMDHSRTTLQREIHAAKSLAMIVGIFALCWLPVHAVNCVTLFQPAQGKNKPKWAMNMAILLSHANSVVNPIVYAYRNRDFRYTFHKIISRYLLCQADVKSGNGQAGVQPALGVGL
# [4] = Thermodynamic solubility of the compound at pH 7.4; type: physicochemical; settings: buffer, read-out: Therm_solubility
# [5] = target: Adenosine receptor A2a (Rattus norvegicus, UniProt P30543); assay: Displacement of [3H]MSX from A2A receptor in rat brain striatum membranes measured after 30 mins by liquid scintillation counting method; type: cell membranes
# [6] = Thermodynamic solubility of the compound at pH 4; type: physicochemical; settings: buffer, read-out: Therm_solubility
# [7] = target: T3, Adenosine receptor A3 (Homo sapiens) (UniProt P0DMS8); assay: Displacement of [3H]PSB-11 from human A3 receptor expressed in CHO cell membrane at 10 uM by liquid scintillation counting method relative to control relative to control; type: cell membranes
# T3 sequence (whole entry): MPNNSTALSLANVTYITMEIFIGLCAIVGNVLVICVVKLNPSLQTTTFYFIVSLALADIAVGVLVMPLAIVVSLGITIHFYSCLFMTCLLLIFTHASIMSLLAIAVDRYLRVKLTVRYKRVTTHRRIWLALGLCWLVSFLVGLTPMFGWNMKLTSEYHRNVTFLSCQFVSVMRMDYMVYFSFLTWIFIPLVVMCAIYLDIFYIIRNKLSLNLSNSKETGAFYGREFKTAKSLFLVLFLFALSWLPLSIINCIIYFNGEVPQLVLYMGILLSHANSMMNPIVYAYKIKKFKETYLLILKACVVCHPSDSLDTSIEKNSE
# [8] = Thermodynamic solubility of the compound at pH 1; type: physicochemical; settings: buffer, read-out: Therm_solubility
# [9] = target: T4, Amine oxidase [flavin-containing] B (Homo sapiens, UniProt P27338); assay: Inhibition of recombinant human MAO-B expressed in baculovirus infected BTI insect cells preincubated for 30 mins followed by addition of p-tyramine as substrate measured over 45 mins by Amplex Red MAO assay
# T4 sequence (P27338 whole entry): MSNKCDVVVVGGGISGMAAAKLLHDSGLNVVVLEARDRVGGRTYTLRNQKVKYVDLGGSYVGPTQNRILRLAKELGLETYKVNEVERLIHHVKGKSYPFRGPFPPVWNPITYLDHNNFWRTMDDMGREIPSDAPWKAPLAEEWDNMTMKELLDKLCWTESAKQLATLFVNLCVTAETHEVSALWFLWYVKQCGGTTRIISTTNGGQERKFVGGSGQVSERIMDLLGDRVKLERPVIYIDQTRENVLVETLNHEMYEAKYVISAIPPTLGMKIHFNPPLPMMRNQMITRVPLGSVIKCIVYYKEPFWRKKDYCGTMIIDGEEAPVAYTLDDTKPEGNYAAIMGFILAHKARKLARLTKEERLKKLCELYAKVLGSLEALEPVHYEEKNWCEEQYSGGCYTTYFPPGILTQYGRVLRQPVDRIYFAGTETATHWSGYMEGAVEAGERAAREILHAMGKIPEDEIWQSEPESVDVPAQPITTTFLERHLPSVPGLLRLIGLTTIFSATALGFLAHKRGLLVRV
# [10] = target: T5, Adenosine receptor A3 (Homo sapiens, UniProt P0DMS8); assay: Displacement of [3H]PSB-11 from human A3 receptor expressed in CHO cell membrane by liquid scintillation counting method relative to control; type: cell membranes
# T5 sequence (P0DMS8 whole entry): T3 sequence (whole entry)
# [11] = target: T6, Adenosine receptor A1 (Rattus norvegicus, UniProt P25099); assay: Displacement of [3H]CCPA from A1 receptor in rat brain cortex membranes by liquid scintillation counting method; type: cell membranes
# T6 sequence (P25099 whole entry): T1 sequence (whole entry)
# [12] = target: T7, Adenosine receptor A2b (Homo sapiens) (UniProt P29275); assay: Displacement of [3H]PSB-603 from human A2B receptor expressed in CHO cell membrane at 1 uM relative to control; type: cell membranes
# T7 sequence (whole entry): T2 sequence (P29275 whole entry)
# [13] = target: T4, Amine oxidase [flavin-containing] B; assay: Inhibition of recombinant human MAO-B expressed in baculovirus infected BTI insect cells at 10 uM preincubated for 30 mins followed by addition of p-tyramine as substrate measured over 45 mins by Amplex Red MAO assay relative to control; settings: 0.75 h
# Adenosine receptor A2a (Rattus norvegicus), sequence (P30543 whole entry): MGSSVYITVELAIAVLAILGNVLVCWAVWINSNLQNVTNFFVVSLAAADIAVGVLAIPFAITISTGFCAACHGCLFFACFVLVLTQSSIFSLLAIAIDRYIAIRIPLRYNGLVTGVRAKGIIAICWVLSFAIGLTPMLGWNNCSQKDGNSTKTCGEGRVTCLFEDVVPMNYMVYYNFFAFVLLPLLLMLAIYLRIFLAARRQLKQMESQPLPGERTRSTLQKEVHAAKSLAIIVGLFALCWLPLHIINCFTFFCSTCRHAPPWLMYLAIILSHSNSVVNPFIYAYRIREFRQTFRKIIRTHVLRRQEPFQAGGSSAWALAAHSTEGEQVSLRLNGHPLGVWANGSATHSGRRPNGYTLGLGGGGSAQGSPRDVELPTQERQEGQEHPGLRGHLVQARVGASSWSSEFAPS
# Adenosine receptor A2a, sequence (P30543 whole entry): as above
Structure (SMILES),Activity [1] [%],Activity [2] [%],Ki [3] [nM],solubility thermodynamic [4] [µg/mL],Ki [5] [nM],solubility thermodynamic [6] [µg/mL],Activity [7] [%],solubility thermodynamic [8] [µg/mL],IC50 [9] [nM],Ki [10] [nM],Ki [11] [nM],Activity [12] [%],inhibition at 10 µM [13] [%]
Cn1c(=O)c2c(nc3n2CCN(CCc2ccccc2Br)C3)n(C)c1=O,27,10,> 1000,< 0.5,> 1000,< 0.5,35,> 1500,970,> 10000,> 1500,24,–
Cc1sc(-c2ccc(C(F)(F)F)cc2)nc1CN1CCn2c(nc3c2c(=O)n(C)c(=O)n3C)C1,19,25,> 1000,1,> 1000,–,40,–,10000,> 10000,> 1500,30,67
Cc1cc(CN2CCn3c(nc4c3c(=O)n(C)c(=O)n4C)C2)n(C)n1,14,15,> 1000,700,> 1000,–,5,–,> 10000,> 10000,> 1500,8,-17
Cn1c(=O)c2c(nc3n2CCN(CC(O)c2ccccc2)C3)n(C)c1=O (centres undefined),–,7,> 1000,90,7110,70,11,1100,> 10000,> 10000,> 1500,20,3
Cn1c(=O)c2c(nc3n2CCN(CCCn2ccnc2)C3)n(C)c1=O,13,13,> 1000,–,> 1000,–,11,–,> 10000,> 10000,> 1500,4,2
Cn1c(=O)c2c(nc3n2CCN(CCOc2ccccc2F)C3)n(C)c1=O,23,5,> 1000,< 0.5,> 1000,< 0.5,41,> 1500,> 10000,> 10000,> 1500,12,24
Cn1c(=O)c2c(nc3n2CCN(CCc2ccc(O)cc2)C3)n(C)c1=O,–,11,> 1000,1,6040,–,35,–,> 10000,> 10000,> 1500,8,15

# — ChEMBL document CHEMBL4428125, “8-Substituted 1,3-dimethyltetrahydropyrazino[2,1-f]purinediones: Water-soluble adenosine receptor antagonists and monoamine oxidase B inhibitors” (Bioorg Med Chem, 2016)
